Assay results as given in patent US11033569B2, “Compounds,Compositions, and methods for the treatment of disease” (Sperovie Biosciences, Inc., priority 2016, dated 2021).
“Also recorded” adds a separate entry of the source.

Assays:
human monocytes = assay: Activity in human monocytes; type: cell-based; conditions: human monocytes (FIG. 36A)
A20 lymphoma = assay: Syngeneic A20 lymphoma mouse model; type: in vivo; conditions: for tumor growth upon re-challenge with tumor cells: compared with control
THP1 cells = assay: Caspase-Glo 3/7 apoptosis assay in THP1 cells; type: cell-based; conditions: THP1, Lipofectamine LTX, 20 h
Experimental: The Apoptosis in THP1 cells was assessed using Caspase-Glo® 3/7 Assay (Promega). […] The caspase-3 and -7 activity was measured by using a pro-luminescent caspase-3/7 substrate that contains the tetrapeptide sequence DEVD which is cleaved to release amino-luciferin, a substrate of luciferase used in the production of light. After incubation for 20 h, Apoptotic activity was assessed by measuring levels of amino-luciferin. % Apoptosis was calculated from fold-change in luminescence compared to DMSO-treated sample. CC50 values are generated by curve fit in Xlfit.

CT26 colon cancer = assay: Syngeneic CT26 colon cancer mouse model; type: in vivo
[1] = system: CD8+ T cells, CD4+ T cells, and MDSCs; assay: Flow cytometry of immune cells in spleen, lymph nodes and blood; type: in vivo; conditions: lymph nodes and blood on day 19, compared with vehicle
[2] = system: tumor cells and THP1 cells; assay: Tumor cell growth, high-content image-based approach
[3] = system: 4T1.luc2 orthotopic murine breast carcinoma; assay: 4T1.luc2 orthotopic murine breast carcinoma model; type: in vivo, mice
Experimental: The efficacy of intraperitoneal administration of Cmd 1 was investigated in the 4T1.luc2 orthotopic murine breast carcinoma model. Thirty female BALB/c mice between 7-10 weeks old were randomized into four treatment groups based on Day 1 body weight, and the treatment was carried out according to the regimen outlined in Table 4 below. Cmd 1 was dissolved in saline and administered at 10 mL/kg (0.200 mL/20 g mouse), with a cell injection volume of 0.05 mL/mouse.
Each animal was monitored individually. The endpoint of the experiment was a tumor volume of […] or 45 days. Animals in Groups 1 and 2 were subjected to whole body bioluminescent imaging starting on Day 5 and once a week thereafter (Days 12, 19, 26, 33, and 41). At the endpoint, blood and tissue (lung, lymph nodes, spleen, and tumor) was analyzed for presence of metastases and biomarker (CD45, CD3, CD4, CD8, CD11b, CD25, Ly-6G, Ly-6C, FoxP3) levels.

mouse melanoma cells = assay: Apoptosis of mouse melanoma cells; type: cell-based
STING [4] = target: T1, STING (Homo sapiens, UniProt Q86WV6); assay: STING binding / type I IFN signaling (ISRE-luciferase); type: cell-based; conditions: similar to 2′,3′-cGAMP
T1 construct: host or cells: SZ14 HEK293 cells stably expressing ISG54 ISRE-luc reporter
Experimental: SZ14 HEK293 cells stably expressing the ISG54 ISRE-luc reporter gene were treated with compound exemplary compounds Cmd 1, 2′ 3-cGAMP (natural STING ligand), or DMSO in the presence of digitonin for 5-6 hrs. ISRE-luciferase activity was determined and normalized to DMSO treated cells (mean±standard deviation of triplicate wells per stimulant).

THP1 cells and PBMCs [5] = assay: Gene expression of ISGs and PRRs in THP1 and PBMCs (real time PCR); type: cell-based; conditions: 5 uM, Lipofectamine LTX, 20 h
Experimental: (§1) After incubation for 20 h, RNA was extracted and gene expression of different Interferon Stimulated Genes (ISGs) and various Pattern Recognition Receptors (PRRs) was evaluated by real time PCR. Fold Induction was calculated by ΔΔct method.
as §1

THP1 cells and PBMCs [6] = assay: Caspase-Glo 3/7 apoptosis assay, THP1 vs. PBMCs; type: cell-based; conditions: Lipofectamine LTX, 20 h
Experimental: The Apoptosis in THP1 cells and PBMCs was assessed using Caspase-Glo® 3/7 Assay (Promega). […] The caspase-3 and -7 activity was measured by using a proluminescent caspase-3/7 substrate that contains the tetrapeptide sequence DEVD which will be cleaved to release aminoluciferin, a substrate of luciferase used in the production of light. After incubation for 20 h, Apoptotic activity was assessed by measure levels of aminoluciferin. % Apoptosis was calculated from fold change in luminescence compared to DMSO treated sample.

STING [7] = target: T2, STING (Homo sapiens, UniProt Q86WV6, G230A/H232R/R293Q/R71H); assay: Role of STING palmitoylation in THP1 cells; type: cell-based
T2 construct: endogenous in cells; host or cells: THP1 cells

STING [8] = target: T1, STING; assay: STING dependence of cell death; type: cell-based
[9] = Immunohistochemistry on tissues from treated mice; type: in vivo
Tumor cells = assay: Tumor cell growth inhibition (DAPI imaging, ImageXpress); type: cell-based; conditions: once daily for 3 days, no lipofectamine
Experimental: Tumor cells in 96-well plate were treated once daily with Cmd 1 (no lipofectamine) or recombinant IFN (U-IFN) for 3 days. Cells were fixed with 1% paraformaldehyde and stained with DAPI. Cells were automatically imaged on ImageXpress and total number of survival cells were analyzed using MetaXpress software. Results are shown as total number of cells per group or % reduction calculated by normalizing to DMSO treated cells.

STING [10] = target: T1, STING; assay: Gel shift assay; type: binding; conditions: gel shift with fluorescent close structural analog of Cmd 1
[11] = target: STING-HAQ polymorphic variant (Homo sapiens, UniProt Q86WV6, G230A/H232R/R293Q/R71H); assay: Activation of STING-HAQ polymorphic variant; type: cell-based; conditions: major STING-HAQ polymorphic variant in humans
mouse macrophages = assay: Type I IFN signaling in mouse macrophages; type: cell-based
Experimental: Activity of secreted luciferase in cell culture supernatant was measured using Invivogen Quanti-luc. Data are shown as fold induction over DMSO treated cells (mean±standard deviation of triplicate wells per stimulant).

T1 sequence (Q86WV6 whole entry): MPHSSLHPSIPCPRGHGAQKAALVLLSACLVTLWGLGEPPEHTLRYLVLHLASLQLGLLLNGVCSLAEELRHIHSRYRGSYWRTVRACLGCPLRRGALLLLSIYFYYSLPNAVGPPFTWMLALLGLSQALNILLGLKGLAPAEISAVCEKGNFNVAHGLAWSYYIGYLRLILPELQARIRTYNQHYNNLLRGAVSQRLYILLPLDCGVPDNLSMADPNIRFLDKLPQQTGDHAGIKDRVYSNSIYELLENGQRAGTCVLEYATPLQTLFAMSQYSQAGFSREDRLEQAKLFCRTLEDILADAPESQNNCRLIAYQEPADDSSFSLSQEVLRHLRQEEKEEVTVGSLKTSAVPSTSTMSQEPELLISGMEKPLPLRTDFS
T2 sequence (Q86WV6 whole entry R71H/G230A/H232R/R293Q): as the sequence (Q86WV6 whole entry) above, with R71H, G230A, H232R, R293Q counted along it
Sequence of STING-HAQ polymorphic variant (Q86WV6 whole entry R71H/G230A/H232R/R293Q): as the sequence (Q86WV6 whole entry) above, with R71H, G230A, H232R, R293Q counted along it

## CCCCCCCCCCOc1ccc(C(=O)Oc2ccc(CSP3(=O)OC[C@H]4O[C@@H](n5cnc6c(N)ncnc65)[C@H](F)[C@@H]4OP(=O)(O)OC[C@H]4O[C@@H](n5ccc(=O)[nH]c5=O)[C@H](F)[C@@H]4O3)cc2)cc1.N (stereo partly shown) [Cmd 1]
Human monocytes
  activity relative to natural STING ligand 3′,3′-cGAMP: more active
A20 lymphoma; combination therapy with cyclophosphamide
  survival rate: significantly improve the survival rate
A20 lymphoma; in combination with cyclophosphamide
  tumor-free survival: results in tumor-free survival
A20 lymphoma; monotherapy
  survival rate: significantly improve the survival rate
A20 lymphoma; monotherapy, compared with vehicle
  tumor growth: potently inhibits lymphoma tumor growth; also recorded: considerable tumor growth inhibition; also recorded: inhibit mouse A20 B cell lymphoma tumor cells
A20 lymphoma; tumor tissue, vs vehicle
  migration of CD8 T cells into the tumor site (immunohistochemistry): induces migration of CD8 T into the tumor site
  migration of NK cells into the tumor site (anti-granzyme B immunohistochemistry): induces migration of NK cells into the tumor site
  migration of macrophages into the tumor site (anti-F4/80 immunohistochemistry): induces migration of macrophages into the tumor site
A20 lymphoma; tumor-free mice after Cmd 1 + cyclophosphamide treatment
  tumor growth upon re-challenge with tumor cells: no tumor growth
A20 lymphoma; tumor-free mice after Cmd 1 treatment
  tumor growth upon re-challenge with tumor cells: no tumor growth
THP1 cells
  apoptosis: Causes Cell Death by Apoptosis
CT26 colon cancer; administered intratumorally, 13 days post initiation treatment, vs vehicle
  abscopal antitumoral activity, tumor volume left and right flank: considerable tumor growth inhibition
CT26 colon cancer; combination therapy with an anti-CTLA4 antibody
  survival rate: significantly improve the survival rate
CT26 colon cancer; doses 10 μg, 30 μg, and 100 μg, vs vehicle
  tumor growth: considerable tumor growth inhibition at all three doses
CT26 colon cancer; intratumoral administration, vs vehicle (FIG. 79)
  tumor growth: considerable tumor growth inhibition
CT26 colon cancer; intratumoral administration, vs vehicle, vehicle and Ethanol (FIG. 80)
  tumor growth: considerable tumor growth inhibition
CT26 colon cancer; monotherapy
  survival rate: significantly improve the survival rate
CT26 colon cancer; syngeneic CT26 colon cancer model (FIG. 62)
  tumor growth: highly effective in inhibiting tumor growth
[1]
  induction of CD8+ T cells, CD4+ T cells, and MDSCs: increase in CD8+ T cells, CD4+ T cells, and MDSCs
[2]; high-content image-based approach (FIG. 49)
  anti-tumor activity: anti-tumor activity
[2]; tumor cells and THP1 cells
  STING dependence of tumor cell growth inhibition: STING dependent
[2]; tumor cells and THP1 cells, high-content image-based approach
  tumor cell growth: inhibits tumor cell growth
[3]; 10 mg/kg ip days 5, 7, 9, 11, 14, 18, compared with control
  tumor growth / tumor volume: significant decline in tumor volume; also recorded: significant decrease in tumor growth
[3]; 4T1 breast cancer model, compared with vehicle (FIG. 75)
  tumor growth: considerable tumor growth inhibition
[3]; intraperitoneal administration, compared with vehicle (FIG. 82)
  tumor growth (luminescence images): considerable tumor growth inhibition
Mouse melanoma cells
  apoptosis: causes apoptosis
STING [4]
  STING binding and type 1 IFN signaling: binds to STING to activate type 1 IFN signaling
THP1 cells and PBMCs [5]
  induction of ISG and PRR-associated genes, THP1 compared to PBMCs: selective and enhanced induction of ISG and PRR-associated genes
THP1 cells and PBMCs [6]
  selectivity of apoptosis induction THP1 vs. PBMCs: selective induction of apoptosis
STING [7]
  involvement of STING palmitoylation in activation of NF-κB and IRF-type I interferon response: palmitoylation of STING is involved
STING [8]
  STING dependence of induction of cell death: STING-mediated
[9]
  correlation of anti-tumor activity with immune response: correlates with the induction of the innate and adaptive immune response
Tumor cells
  tumor cell growth: Inhibits Tumor Cell Growth
STING [10]
  binding to STING: binds to STING
[11]
  activation of STING-HAQ variant: capable of activating
Mouse macrophages; mouse macrophages (FIG. 36B)
  activity relative to natural STING ligand 3′,3′-cGAMP: more active
Mouse macrophages; mouse macrophages, similar to 2′,3′-cGAMP
  activation of type 1 IFN signaling: highly active
